Assay [1] deals with T1, GST-GR LBD (F602S) 521–777 (Homo sapiens, UniProt P04150, F602S).
T1 construct: GR-LBD(521–777) F602S; made in house; host or cells: E. coli BL21(DE3); TIF2 peptide made by chemical synthesis
T1 sequence (P04150 521-777 F602S): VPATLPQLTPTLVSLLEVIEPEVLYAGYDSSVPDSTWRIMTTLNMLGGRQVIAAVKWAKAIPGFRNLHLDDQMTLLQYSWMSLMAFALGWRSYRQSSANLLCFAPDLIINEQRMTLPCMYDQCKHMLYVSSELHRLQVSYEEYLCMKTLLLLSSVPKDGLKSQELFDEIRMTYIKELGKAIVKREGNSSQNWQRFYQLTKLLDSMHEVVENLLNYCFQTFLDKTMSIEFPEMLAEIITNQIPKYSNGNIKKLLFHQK
Description: Surface plasmon resonance (Biacore) binding of GST-GR LBD to immobilized TIF2 LXXLL peptide. Here is the method:
Each point is the average of two determinations.
FIG. 2B was generated using Biacore techniques. Biacore relies on changes in the refractive index at the surface layer upon binding of a ligand to a protein immobilized on the layer. In this system, a collection of small ligands is injected sequentially in a 2–5 microliter cell, wherein the protein is immobilized within the cell. Binding is detected by surface plasmon resonance (SPR) by recording laser light refracting from the surface. […] The purified protein is then used in the assay without further preparation. A synthetic peptide with an amino-terminal biotin is coupled to a sensor chip immobilized with streptavidin. The chip thus prepared is then exposed to the potential ligand via the delivery system incorporated in the instruments sold by Biacore (Uppsala, Sweden) to pipet the ligands in a sequential manner (autosampler). The SPR signal on the chip is recorded and changes in the refractive index indicate an interaction between the immobilized target and the ligand. Analysis of the signal kinetics of on rate and off rate allows the discrimination between non-specific and specific interaction.
For orientation: Surface plasmon resonance follows binding to a sensor surface in real time, without labels.

The next assay concerns the target GR LBD (F602S) 521–777 (Homo sapiens, UniProt P04150, F602S). The following applies: GST-GR fusion protein and cleaved GR LBD alone; 10 nM fluorescein dexamethasone, competed with 100 uM unlabeled dexamethasone (FIG. 2A).
Assay [2] deals with T2, GST-GR LBD 521–777 (F602S) (Homo sapiens, UniProt P04150, F602S).
T2 construct: GR-LBD(521–777) F602S; made in house; host or cells: E. coli BL21(DE3)
T2 sequence (P04150 521-777 F602S): T1 sequence (P04150 521-777 F602S)
Description: Stability of GR dexamethasone binding activity over time by fluorescence polarization. The following applies: 25 uM peptide, 1 μM GST-GR LBD, 10 nM fluorescein dexamethasone (FIG. 2C). Here is the method: FIG. 2C is a graph depicting that TIF2 coactivator peptide enhances stability of GR dexamethasone binding activity. The effect of 25 uM coactivator peptide TIF2 732–756 (diamonds) or no peptide (squares) on the binding of GST-GR LBD (F602S) 521–777 to 10 nM fluorescein dexamethasone with time is determined by fluorescence polarization.
In general terms: Polarisation of emitted light reports the rotation of a fluorescent probe.

GR LBD (F602S) 521–777, sequence (P04150 with tags, fused parts or gaps F602S): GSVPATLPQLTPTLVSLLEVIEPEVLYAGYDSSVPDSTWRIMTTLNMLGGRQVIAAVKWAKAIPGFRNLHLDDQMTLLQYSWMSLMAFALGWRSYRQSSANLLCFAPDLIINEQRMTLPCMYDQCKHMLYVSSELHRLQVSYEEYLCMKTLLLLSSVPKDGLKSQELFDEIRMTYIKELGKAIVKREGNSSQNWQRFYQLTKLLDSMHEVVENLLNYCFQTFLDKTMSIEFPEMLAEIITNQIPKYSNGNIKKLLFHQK

Turning to “(11β, 16α)-9-fluoro-11β,17,21-trihydroxy-16α-methylpregna-1-4-diene-3,20-dione [dexamethasone]”, the “effect of ligand on binding of the GST-GR fusion protein to the TIF2 peptide” value in assay [1] (five-fold excess of compound over GST-GR LBD (F602S) (FIG. 2B)) is “enhanced”. Further, the “binding of dexamethasone to GR” value on GR LBD (F602S) 521–777 was “saturable and competable”.
On to “QEPVSPKKKENALLRYLLDKDDTKD [TIF2 peptide]”, for which the “affinity of the TIF2 coactivator peptide for the GST-GR fusion protein” value in assay [1] (immobilized TIF2 732–756 peptide (FIG. 2B)) is recorded as “submicromolar”. Besides, the “effect on the dexamethasone binding activity of the GST-GR fusion protein with time” value in assay [2] is on record as “stabilizes”.

Source of the values: patent US7238778B2, “Crystallized glucocorticoid receptor ligand binding domain polypeptide and screening methods employing same” (SmithKline Beecham Corporation, priority 2001, dated 2007).
